The record followed here is ChEMBL document CHEMBL1201862, “PubChem BioAssay data set” (2004).

Calls of active or inactive are those of the source.

The subject of assay [1] is BJ. Nature of the assay: cytotoxicity toward BJ-TERT fibroblasts, dose response, cell-based, RAS-independent, luminescence (AID 1933). The settings on record: Homo sapiens. Format: functional.
The nature of assay [2]: Luminescence Cell-Based Dose Response HTS to Identify Inhibitors of 5'UTR Stem-Loop Driven Prion Protein mRNA Translation in H4 Neuroglioblastoma Cells. [Related pubchem assays: 1827 (Project Summary), 1813 (Primary HTS)]. The assay is classed as functional.
Assay [3] has as its system BJ. Kind of assay: cells. The assay is classed as functional, cell-based. The settings on record: Homo sapiens.
The subject of assay [4] is INS1. Nature of the assay: beta cell apoptosis inhibitors, cytokine rescue, dose response, luminescence, retest (AID 449756).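 Further: cell death triggered by IL-1 beta plus TNF-alpha plus IFN-gamma mixture; protective hits raise ATP signal compared with cytokine alone wells.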 Format: functional, cell-based. The settings on record: Rattus norvegicus.
Assay [5] in a line: inhibitors of firefly luciferase expression or activity, dose response, H4 neuroglioma cells, luminescence (AID 1990). Format: functional, cell-based.
In assay [6] the target is T1, Insulin-degrading enzyme (Homo sapiens, UniProt P14735). Nature of the assay: activators of recombinant IDE enzyme, dose response, counter-screen for IDE activator project, biochemical, fluorescence polarization (AID 588681).
Assay [7] has as its target G-protein coupled receptor 55 (Homo sapiens, UniProt Q9Y2T6). Kind of assay: GPR55 antagonists blocking LPI-driven arrestin recruitment, primary screen, imaging, U2OS, beta-arrestin-GFP, LPI agonist (AID 2013).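 Further: antagonist potency measured as reduced agonist-driven arrestin aggregation.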 The assay is classed as functional. For orientation: Recruitment of arrestin is a read-out of receptor activation apart from second messengers.
Assay [8] deals with BJ. Nature of the assay: cytotoxicity toward Ras-transformed BJeLR fibroblasts, dose response, cell-based, alamar blue fluorescence, cherrypicked samples (AID 2631).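 Further: confirmatory dose-response assay in RAS-dependent BJ fibroblasts engineered with TERT, LT and ST, with cytotoxicity read by fluorescence.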 The assay is classed as functional. The settings on record: Homo sapiens.
Assay [9] relates to HEK293. Kind of assay: HEK cell cytotoxicity by LDH release, dose response, cytotoxicity control for IDE activator project, fluorescence, HEK cells (AID 588440).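 Further: cytotoxicity by LDH release measuring loss of membrane integrity.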 The assay is classed as functional, cell-based. The settings on record: Homo sapiens. (LDH leaks from cells whose membrane has failed.)
For assay [10], the system named is HEK293. Kind of assay: optical interference in Abeta FP readout, dose response, artefact control for IDE activator project, biochemical, fluorescence polarization (AID 588442). Format: functional, cell-based. The settings on record: Homo sapiens. On the technique in general: Polarisation of emitted light reports the rotation of a fluorescent probe.
Assay [11] in a line: cytotoxicity toward DRD oncogenic fibroblasts, dose response, cell-based, non-viral oncogenic, luminescence (AID 1934). Format: functional. As to conditions: Homo sapiens.
Assay [12] has as its target T2, Ubiquitin-conjugating enzyme E2 N (Homo sapiens, UniProt P61088).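 Further: Dose-response confirmation in a TR-FRET assay detecting UBC13-driven polyubiquitin chain formation, inhibition measured.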
T2 sequence (P61088 whole entry): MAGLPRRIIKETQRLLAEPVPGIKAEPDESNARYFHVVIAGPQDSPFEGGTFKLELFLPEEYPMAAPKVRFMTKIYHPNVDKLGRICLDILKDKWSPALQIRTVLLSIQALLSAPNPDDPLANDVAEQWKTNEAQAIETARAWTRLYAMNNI
The assay is classed as functional.

In assay [13] the target is T1, Insulin-degrading enzyme. Kind of assay: activators of endogenous IDE in HEK cells, dose response, cell-based, fluorescence polarization (AID 588439). The assay is classed as functional.
For assay [14], the system named is BJ. Nature of the assay: cytotoxicity toward BJ-TERT-LT-ST fibroblasts, dose response, cell-based, RAS-independent, luminescence (AID 1935).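 Further: BJ fibroblasts immortalized with TERT plus LT and ST oncogenes.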 Format: functional. As to conditions: Homo sapiens.
The nature of assay [15]: inhibitors of SNCA 5'UTR-driven reporter translation, confirmation, H4 neuroglioma cells, luminescence (AID 1988). The assay is classed as functional, cell-based.
The nature of assay [16]: LGR2 antagonists, dose response, cell-based, HEK293, CRE-luciferase reporter, cherry pick, set 2 (AID 743343).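 Further: transfected cells were stimulated with diluted bursicon conditioned medium after compound addition.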 The assay is classed as functional.
The nature of assay [17]: off-target signal loss in HeLa-CEM21 co-culture – HeLa F-luc CTL cells, cherry-picked, counter-screen for HIV-1 Env fusion inhibitor project, dose response (AID 652040).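 Further: potency for signal decrease marking cytotoxic or nonspecific inhibition.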 Format: functional, cell-based.
Assay [18] can be described thus: inhibitors of HIV Env-driven cell fusion, dose response, cherry-pick (AID 652057). The assay is classed as functional, cell-based.
Assay [19] in a line: MC4R antagonists, dose response, counter-screen for LGR2 antagonist project, cell-based, plate reader, cherry pick (AID 743444).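 Further: transfected HEK 293 cells stimulated with alpha-MSH peptide; potency of inhibitors of the alpha-MSH evoked signal.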 Format: functional.
The test system of assay [20] is Jurkat. Kind of assay: antigen receptor-induced NF-kB inhibitors, dose response, Jurkat, luciferase reporter, luminescence, B- and T-cell (AID 489004).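 Further: NF-kB luciferase reporter Jurkat cells stimulated with PMA plus ionomycin.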 Format: functional, cell-based. As to conditions: Homo sapiens.
Assay [21] can be described thus: cytotoxicity in HEK-293T NF-kB-Luc cells, dose response, cytotoxicity control for B/T-cell NF-kB inhibitor project, cell-based, uHTS hits (AID 489019).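 Further: IC50 reflects cytotoxicity as loss of cell viability.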 Format: functional.
Assay [22] is described as follows: inhibitors of clade B AD8 Env fusion, dose response, cell-based, cherry-pick (AID 652062).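 Further: luciferase signal from cell-cell fusion driven by HIV-1 clade B AD8 Env; potency is for inhibitors of fusion seen as a drop in luminescence.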 Format: functional.
A short description of assay [23]: A549 cell cytotoxicity, dose response, cytotoxicity control, plate reader, cherry-pick, antagonist series (AID 743412). Format: functional, cell-based.
In assay [24] the test system is H4. Kind of assay: inhibitors of control reporter signal in H4 cells – cell-based, plate reader, dry powder samples, counter-screen for prion reporter project, dose response (AID 540255). The assay is classed as functional. The settings on record: Homo sapiens.
The target in assay [25] is T3, Microphthalmia-associated transcription factor (Homo sapiens, UniProt O75030).
T3 sequence (O75030 whole entry): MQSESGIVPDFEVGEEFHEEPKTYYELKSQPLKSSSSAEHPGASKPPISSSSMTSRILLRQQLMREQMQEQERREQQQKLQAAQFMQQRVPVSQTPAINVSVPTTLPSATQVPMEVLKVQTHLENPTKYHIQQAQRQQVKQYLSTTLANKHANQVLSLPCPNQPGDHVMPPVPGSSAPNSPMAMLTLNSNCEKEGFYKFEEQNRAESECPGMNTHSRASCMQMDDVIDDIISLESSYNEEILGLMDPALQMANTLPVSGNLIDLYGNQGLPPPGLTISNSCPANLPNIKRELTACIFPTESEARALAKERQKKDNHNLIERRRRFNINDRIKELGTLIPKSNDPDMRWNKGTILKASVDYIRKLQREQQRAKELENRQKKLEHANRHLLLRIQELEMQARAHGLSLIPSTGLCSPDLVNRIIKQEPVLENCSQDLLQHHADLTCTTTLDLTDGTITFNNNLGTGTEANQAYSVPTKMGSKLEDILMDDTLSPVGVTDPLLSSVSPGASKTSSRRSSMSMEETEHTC
Kind of assay: TRPM1 promoter luciferase signal decrease, dose response, MITF inhibitor project, cell-based, SK-MEL-5, cherry-picked, set 3 (AID 493073).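 Further: SK-MEL-5 melanoma cells with luciferase driven by the MITF target TRPM1 promoter.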 Format: functional.

The nature of assay [26]: ZM109 Env clade C HIV-1 fusion inhibitors, dose response, HeLa effector, CEM target cells, luciferase, cherry-pick (AID 652058). The assay is classed as functional, cell-based.
Assay [27] has as its system H4. Kind of assay: Inhibitors of Prion Protein 5' UTR mRNA Measured in Cell-Based System Using Plate Reader - 2078-01_Inhibitor_Dose_DryPowder_Activity. [Related pubchem assays (depositor defined):AID488894]. As to conditions: Homo sapiens. Format: functional.

T1 sequence (P14735 whole entry): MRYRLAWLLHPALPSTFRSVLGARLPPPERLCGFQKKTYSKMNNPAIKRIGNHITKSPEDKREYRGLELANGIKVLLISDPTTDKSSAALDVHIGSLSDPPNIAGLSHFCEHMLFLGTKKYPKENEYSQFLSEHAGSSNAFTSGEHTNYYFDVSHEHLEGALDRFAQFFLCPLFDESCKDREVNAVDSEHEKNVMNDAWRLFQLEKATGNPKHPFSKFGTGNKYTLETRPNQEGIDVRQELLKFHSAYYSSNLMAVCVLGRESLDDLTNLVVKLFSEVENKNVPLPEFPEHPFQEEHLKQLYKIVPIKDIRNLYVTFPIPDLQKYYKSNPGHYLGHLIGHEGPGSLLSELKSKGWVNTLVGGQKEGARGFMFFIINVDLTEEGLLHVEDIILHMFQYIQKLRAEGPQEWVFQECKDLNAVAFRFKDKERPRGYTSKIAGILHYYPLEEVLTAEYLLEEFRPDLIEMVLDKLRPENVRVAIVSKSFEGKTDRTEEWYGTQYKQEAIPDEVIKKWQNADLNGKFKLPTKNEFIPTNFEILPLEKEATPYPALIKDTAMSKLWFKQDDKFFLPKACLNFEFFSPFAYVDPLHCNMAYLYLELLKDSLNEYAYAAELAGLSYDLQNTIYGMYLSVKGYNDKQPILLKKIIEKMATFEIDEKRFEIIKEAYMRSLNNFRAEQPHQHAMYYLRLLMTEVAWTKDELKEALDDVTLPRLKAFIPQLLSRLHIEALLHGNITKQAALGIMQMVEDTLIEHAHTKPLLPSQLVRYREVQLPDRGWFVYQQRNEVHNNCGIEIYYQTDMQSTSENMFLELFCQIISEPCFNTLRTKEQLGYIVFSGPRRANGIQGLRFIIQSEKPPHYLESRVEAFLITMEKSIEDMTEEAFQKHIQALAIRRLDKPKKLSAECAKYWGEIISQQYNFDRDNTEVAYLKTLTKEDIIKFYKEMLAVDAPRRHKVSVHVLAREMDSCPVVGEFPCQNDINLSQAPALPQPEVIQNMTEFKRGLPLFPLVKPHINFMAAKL
Chain of G-protein coupled receptor 55 (Q9Y2T6 whole entry): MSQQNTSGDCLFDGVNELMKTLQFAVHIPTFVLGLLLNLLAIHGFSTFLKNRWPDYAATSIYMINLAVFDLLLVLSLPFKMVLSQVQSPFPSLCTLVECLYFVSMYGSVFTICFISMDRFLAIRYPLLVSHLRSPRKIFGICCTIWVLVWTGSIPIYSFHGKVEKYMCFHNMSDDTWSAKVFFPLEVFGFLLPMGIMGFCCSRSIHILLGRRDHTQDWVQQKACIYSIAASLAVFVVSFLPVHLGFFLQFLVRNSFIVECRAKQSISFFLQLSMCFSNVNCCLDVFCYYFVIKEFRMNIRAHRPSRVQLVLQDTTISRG

By EC50 is commonly meant the midpoint of the concentration-response curve. The AC50 is the concentration at which the activity in the assay is half-maximal. For orientation: IC50 means the concentration that inhibits the measured activity by half. For the compound `COC(=O)C1=C(C)N(Cc2ccccc2)C(NCc2cccc(C(F)(F)F)c2)=N[C@H]1c1cccc(F)c1`, the EC50 in [1] is 5.26 µM (inconclusive); in [2] it was 11 µM (active); in [3] it was > 150 µM (inconclusive); in assay [5], 8.28 µM (active); in assay [6], > 54.7 µM (inactive); in assay [8] it was > 133 µM (inconclusive). The EC50 in assay [10] was > 54.7 µM (inactive); in [11] it was 9.59 µM (inconclusive); in assay [13], 9.71 µM (active); in assay [14], 4.9 µM (active); in assay [15], > 120 µM (not active). Also, the AC50 in assay [4] was 6.83 µM (active). The values for the IC50 in assay [7], in [9] and in [12] were 1.85 µM (active), 11.3 µM (inactive) and > 20 µM (inactive), respectively.
For `COc1cccc(NC(=O)Nc2cccc(C(=O)O)c2)c1`, the AC50 in assay [16] was 1.56 µM (active); in assay [17] it was 2.11 µM (active); in assay [18], 1.8 µM (active); in [19] it was 2.35 µM (active); in assay [22], 3.29 µM (active); in assay [23], > 52 µM (inactive). For the same compound, the AC50 in [24] was 3.95 µM (active); in assay [25], 2.37 µM (active); in assay [26], 7.32 µM (active); in assay [27] it was 0.915 µM (active). Moreover, the IC50 in assay [20] was 1.9 µM (active); in [21] it was > 80 µM (inactive).
